The values below come from ChEMBL document CHEMBL4665541, “Search for new therapeutic options for the uncommon pathogen Mycobacterium chimaera: an open drug discovery approach” (Lancet Microbe, 2021).

Type in all cases: functional, organism-based
Holding throughout (design): conc 20 uM

For experiment [1], the system named is Mycobacterium intracellulare subsp. chimaera. The experiment is described as follows: (§1) Inhibition of mycobacterial growth using the resazurin microtitre cell viability assay (REMA), compounds at final concentration of 20 µM (2% v/v DMSO). Hits were classed as compounds that inhibited bacterial growth by 70% or more compared to drug-free controls. Conditions: NCTC13781.

The subject of experiment [2] is Mycobacterium tuberculosis. The experiment is described as §1. The conditions noted are these: H37Rv.
Experiment [3] concerns Mycobacteroides abscessus. The description is as §1. Conditions: ATCC19977.

With MMV675995, the Survival in experiment [1] was 97.4%; in experiment [2] it was 90.8%; in experiment [3] it was 111%.

With MMV675996, the results for the Survival in experiment [1], in experiment [2] and in experiment [3] were 94.3%, 102% and 94.2%, respectively.

MMV675997: the results for the Survival in experiment [1], in experiment [2] and in experiment [3] were 98.5%, 99.4% and 105%, respectively.

For the substance MMV675998, the Survival was 94.7% in experiment [1], 89.7% in experiment [2] and 117% in experiment [3].

MMV676008: the Survival is 116% in experiment [1], 99.7% in experiment [2] and 123% in experiment [3].

As for MMV676048, the results for the Survival in experiment [1], in experiment [2] and in experiment [3] were 94.4%, 90.5% and 114%, respectively.

MMV676050: the values for the Survival in experiment [1], in experiment [2] and in experiment [3] were 95.8%, 84.8% and 110%, respectively.

As for MMV676053, the results for the Survival in experiment [1], in experiment [2] and in experiment [3] were 105%, 89.4% and 97.1%, respectively.

As for MMV676057, the values for the Survival in experiment [1], in experiment [2] and in experiment [3] were 110%, 109% and 109%, respectively.

On to MMV676063, for which the Survival in experiment [1] is 112%; in experiment [2], 91%; in experiment [3] it was 105%.

Regarding MMV676064, the Survival in experiment [1] is 102%; in experiment [2], 96.8%; in experiment [3] it was 117%.

Turning to MMV676159, the Survival was 100% in experiment [1], 99.4% in experiment [2] and 106% in experiment [3].

As for MMV676161, the Survival in experiment [1] was 103%; in experiment [2] it was 80.2%; in experiment [3], 114%.

On to MMV676162, for which the Survival was 112% in experiment [1], 93.3% in experiment [2] and 117% in experiment [3].

For MMV676182, the Survival in experiment [1] is 104%; in experiment [2] it was 91.4%; in experiment [3] it was 102%.

MMV676186: the figures for the Survival in experiment [1], in experiment [2] and in experiment [3] were 98.8%, 94.5% and 105%, respectively.

Take MMV676191: the Survival was 105% in experiment [1], 100% in experiment [2] and 99.5% in experiment [3].

Regarding MMV676204, the Survival was 101% in experiment [1], 99.7% in experiment [2] and 107% in experiment [3].

On to MMV676260, for which the Survival in experiment [1] is 97.1%; in experiment [2], 84.8%; in experiment [3], 108%.

In the case of MMV676269, the Survival was 104% in experiment [1], 88.8% in experiment [2] and 111% in experiment [3].

As for MMV676270, the figures for the Survival in experiment [1], in experiment [2] and in experiment [3] were 102%, 82.7% and 108%, respectively.

Turning to MMV676350, the Survival in experiment [1] was 105%; in experiment [2] it was 94.9%; in experiment [3], 116%.

Take MMV676358: the Survival in experiment [1] was 92.3%; in experiment [2], 98.4%; in experiment [3], 114%.

Regarding MMV676377, the figures for the Survival in experiment [1], in experiment [2] and in experiment [3] were 77.7%, 50.2% and 108%, respectively.

For the substance MMV676379, the Survival is 87.9% in experiment [1], 98% in experiment [2] and 116% in experiment [3].

On to MMV676380, for which the Survival in experiment [1] was 86.9%; in experiment [2] it was 97%; in experiment [3], 102%.

As for MMV676382, the Survival was 99% in experiment [1], 88.4% in experiment [2] and 122% in experiment [3].

Regarding MMV676383, the results for the Survival in experiment [1], in experiment [2] and in experiment [3] were 79.3%, 1.2% and 110%, respectively.

Take MMV676384: the Survival in experiment [1] was 101%; in experiment [2] it was 54.5%; in experiment [3], 109%.

Take MMV676386: the results for the Survival in experiment [1], in experiment [2] and in experiment [3] were 90.1%, 24% and 107%, respectively.

As for MMV676388, the Survival in experiment [1] is 101%; in experiment [2], 87.4%; in experiment [3], 110%.

Consider MMV676389, for which the Survival is 98.7% in experiment [1], 51.7% in experiment [2] and 113% in experiment [3].

Turning to MMV676395, the Survival in experiment [1] is -0.21%; in experiment [2], 2.49%; in experiment [3] it was 111%.

On to MMV676398, for which the Survival in experiment [1] was 99.3%; in experiment [2] it was 92%; in experiment [3], 111%.

MMV676401: the results for the Survival in experiment [1], in experiment [2] and in experiment [3] were 88%, 95.8% and 113%, respectively.

As to MMV676406, the Survival in experiment [1] is 105%; in experiment [2], 67.8%; in experiment [3], 111%.

Consider MMV676409, for which the Survival in experiment [1] was 85.7%; in experiment [2], 19.2%; in experiment [3] it was 122%.

As to MMV676411, the Survival in experiment [1] was 98.2%; in experiment [2], 16.4%; in experiment [3], 101%.

Consider MMV676412, for which the Survival in experiment [1] was 92.8%; in experiment [2], 6.6%; in experiment [3] it was 105%.

For the substance MMV676431, the Survival was 98.6% in experiment [1], 81.5% in experiment [2] and 115% in experiment [3].

Turning to MMV676439, the Survival in experiment [1] was 34.7%; in experiment [2], 91.7%; in experiment [3] it was 114%.

In the case of MMV676442, the Survival was 97.1% in experiment [1], 86.8% in experiment [2] and 123% in experiment [3].

With MMV676444, the Survival was 97.5% in experiment [1], 56.3% in experiment [2] and 113% in experiment [3].

With MMV676445, the Survival in experiment [1] is 74.2%; in experiment [2], 30%; in experiment [3], 111%.

As to MMV676449, the Survival in experiment [1] is 84.8%; in experiment [2] it was 90.2%; in experiment [3] it was 102%.

Regarding MMV676461, the Survival is 104% in experiment [1], 78.3% in experiment [2] and 114% in experiment [3].

Turning to MMV676468, the Survival in experiment [1] was 96.9%; in experiment [2], 10.5%; in experiment [3], 103%.

Regarding MMV676470, the Survival was 100% in experiment [1], 90.7% in experiment [2] and 115% in experiment [3].

Turning to MMV676472, the Survival in experiment [1] is 92.2%; in experiment [2], 120%; in experiment [3] it was 115%.

With MMV676474, the Survival in experiment [1] is 88.6%; in experiment [2] it was 60.1%; in experiment [3], 99%.

For MMV676476, the Survival in experiment [1] is 100%; in experiment [2], 72.8%; in experiment [3], 108%.

Turning to MMV676477, the Survival in experiment [1] is 73.1%; in experiment [2] it was 4.54%; in experiment [3], 111%.

As for MMV676478, the Survival was 96.5% in experiment [1], 44.5% in experiment [2] and 111% in experiment [3].

As for MMV676480, the Survival in experiment [1] was 104%; in experiment [2] it was 106%; in experiment [3], 104%.

Regarding MMV676492, the figures for the Survival in experiment [1], in experiment [2] and in experiment [3] were 97.8%, 83.1% and 101%, respectively.

On to MMV676501, for which the values for the Survival in experiment [1], in experiment [2] and in experiment [3] were 91.8%, 14% and 104%, respectively.

For the substance MMV676509, the results for the Survival in experiment [1], in experiment [2] and in experiment [3] were 89.8%, 85.9% and 113%, respectively.

For MMV676512, the Survival in experiment [1] was 95.9%; in experiment [2] it was 6.01%; in experiment [3], 100%.

As to MMV676520, the Survival was 85.8% in experiment [1], 43.4% in experiment [2] and 100% in experiment [3].

For MMV676524, the Survival in experiment [1] is 97%; in experiment [2], 23.4%; in experiment [3], 114%.

As to MMV676526, the values for the Survival in experiment [1], in experiment [2] and in experiment [3] were 74.8%, 97.3% and 103%, respectively.

Take MMV676528: the Survival in experiment [1] is 102%; in experiment [2] it was 88.7%; in experiment [3], 115%.

Regarding MMV676536, the Survival was 101% in experiment [1], 90.9% in experiment [2] and 119% in experiment [3].

Take MMV676539: the Survival in experiment [1] is 95.1%; in experiment [2] it was 29.7%; in experiment [3], 99.7%.

MMV676554: the Survival in experiment [1] is 41.2%; in experiment [2] it was 29.4%; in experiment [3], 109%.

For the substance MMV676555, the Survival in experiment [1] is 39%; in experiment [2], 71.2%; in experiment [3] it was 123%.

Consider MMV676558, for which the Survival in experiment [1] was 100%; in experiment [2] it was 90.9%; in experiment [3] it was 110%.

As for MMV676571, the Survival was 100% in experiment [1], 59.4% in experiment [2] and 115% in experiment [3].

Take MMV676584: the Survival is 90.2% in experiment [1], 66.8% in experiment [2] and 115% in experiment [3].

As for MMV676588, the Survival was 76.5% in experiment [1], 19.7% in experiment [2] and 102% in experiment [3].

On to MMV676589, for which the Survival in experiment [1] is 89%; in experiment [2], 70.1%; in experiment [3], 116%.

MMV676597: the Survival in experiment [1] is 99.5%; in experiment [2], 98%; in experiment [3] it was 113%.

In the case of MMV676599, the Survival is 102% in experiment [1], 88.2% in experiment [2] and 115% in experiment [3].

For the substance MMV676600, the Survival in experiment [1] is 90.1%; in experiment [2], 91.1%; in experiment [3], 125%.

With MMV676602, the Survival in experiment [1] is 111%; in experiment [2] it was 105%; in experiment [3], 95.5%.

As for MMV676603, the Survival in experiment [1] is 101%; in experiment [2], 38.4%; in experiment [3], 112%.
